Assays:
Assay type in all cases: in vivo
[1] = tested on: SCID-IBD mice; experiment: SCID-IBD mouse model: loss of body weight; conditions: for effect on the loss of body weight: either compound alone at the dosages used (ASM 60, 30, 10 mg/kg/d; Compound A 0.1, 0.05 mg/kg/d), daily oral gavage
Text: (§1) Female BALB/cJ and C.B.17 scid/scid mice (Fox Chase SCID®, Bomholtgaard, Denmark) are maintained in ventilated cage racks (Micro-vent type 84-II, Allentown Caging Equipment Co., Allentown, N.J., USA) under specific pathogen free conditions. The experimental procedures performed on the mice are authorized under the license number MA 1048/00 (Magistratabteilung No. 58, Amt der Wiener Landesregierung).
Briefly, CD4^+CD45RB^HI T lymphocytes are isolated from BALB/c mouse spleens by two-colour FACS-sorting through a live/dead gate and injected (2×10^5 cells/mouse, i.p.) into 6-9 week old female SCID mice. Negative control mice receive PBS i.p. and one such mouse is in each cage as a sentinel to monitor possible infections in this immunodeficient colony (PBS-mice).
SCID mice are first reconstituted with the CD4^+CD45RB^HI T cells and then treated with test compounds or vehicle as controls. As test compounds Compound A (RAD) and pimecrolimus (ASM) are used. 3 separate studies using different dosaging are carried out. In each study both compounds are administered alone and combined. […]
The body weight of each mouse is monitored throughout and at the end of the study mice are weighed.
All data presented as mean values are qualified by an s.e.m. value. The body weight data are analysed either by repeated measures analysis or by first finding the mean AUC and then applying an ANOVA multiple comparison test with Tukey post hoc correction. […] All other data are first analysed for normal distribution and then the ANOVA test for multiple comparison is applied. […]
The first visible symptom resulting from the transfer of disease causing CD4^+CD45RB^HI T cells to SCID mice is a severe loss of body weight, usually significant 21 days after transfer. […] In the 3 individual studies described herein, the mean % difference in body weight between the non-transferred and the vehicle-treated mice is calculated to be 16.3±1.8%.

[2] = tested on: SCID-IBD mice; experiment: SCID-IBD mouse model: serum haptoglobin levels; conditions: for reduction of serum haptoglobin levels: ASM at 60 and 30 mg/kg/d, Compound A at 0.1 or 0.05 mg/kg/d, alone; for % reduction of serum haptoglobin: low dose study: ASM 10 mg/kg/d, Compound A 0.05 mg/kg/d, alone or combined
Procedure: (§2) SCID mice are first reconstituted with the CD4^+CD45RB^HI T cells and then treated with test compounds or vehicle as controls. As test compounds Compound A (RAD) and pimecrolimus (ASM) are used. 3 separate studies using different dosaging are carried out. In each study both compounds are administered alone and combined. All 3 studies follow the same basic protocol of 4 groups of mice with one group receiving, by daily oral gavage, both vehicles (placebo), one group Compound A alone, one group ASM alone, and one group a combination of Compound A and pimecrolimus, from day 1 to day 29 after cell transfer.
The mice are anaesthetized at the end of the study and blood withdrawn via cardiac puncture for separation into serum which is frozen and stored at −80°.
(§3) The mean of these values for a group of mice can thus be calculated. To process some of the data further, the determined values are adjusted by subtracting the background value found in non-transferred mice and calculating the % reduction, or indeed increase, in mean cell number, relative to the placebo treated group.
(§4) The increasing T cell population with time also results in an increase in size of lymphoid organs which are otherwise comparatively small in the non-transferred SCID mouse. By day 28 post T cell transfer the inflammation is relatively consistent within a group of mice and this has been adopted as the shortest time where accurate effects of treatment with test compounds can be measured. The effects of a range of doses of Compound A and ASM as single preventative compounds are, in brief, comparative effective dose ranges are found to be from 30 to 100 mg/kg/d administration of ASM and 0.1 to 1 mg/kg/d of Compound A. In the present tests sub-maximal doses of each compounds are used and the effect of the single and combined treatment in the same study is determined.

[3] = tested on: SCID-IBD mice; experiment: SCID-IBD mouse model: colon inflammation, histological severity score; conditions: for effect on colon inflammation (severity scores): low dose study: ASM 10 mg/kg/d, Compound A 0.05 mg/kg/d, alone or combined
Procedure: as §2
A photographic picture is taken of the opened abdominal cavity and then a 1 cm long piece of the colon, just above the rectum, is fixed in formalin for histology.
(§5) Specimens are embedded in paraffin, sections (3 μm thick) are cut and stained with H & E. Four colour FACS analysis is performed on cell suspensions prepared from the blood, spleen and mesenteric lymph nodes (MLNS) of each mouse.
All data presented as mean values are qualified by an s.e.m. value. The body weight data are analysed either by repeated measures analysis or by first finding the mean AUC and then applying an ANOVA multiple comparison test with Tukey post hoc correction. Histology scores are represented as the mean severity score and compared with a Wilcoxon-Mann-Whitney test with exact p-values (StatXact-5 software) and Bonferroni post hoc correction factor. All other data are first analysed for normal distribution and then the ANOVA test for multiple comparison is applied. Statistical significance is taken as p<0.05.
The inflammation in the colon of SCID-IBD mice shares many features observed in lesional tissue of a Crohn's diseased colon. In order to examine the intestinal mucosal damage in SCID-IBD mice a histological examination of the colon sections was performed according to defined morphological parameters. The severe colitis associated with this model of IBD is characterized with a massive cellular infiltrate which in places involves nearly all of the submucosa. The infiltrate is mixed and comprised of lymphocytes, macrophages, neutrophils and some eosinophils. Also evident is the loss of crypt architecture, extensive elongation and epithelial hyperplasia. A severely inflamed colon section will also have crypt abscesses. Numeric scores were given as per the following scheme: a score of 0 to 3 is given for the leucocyte infiltrate where 1 is mild, 2 is moderate and 3 is a severe infiltrate including the submucosal layer. A score of 0 to 2 is given for Goblet cell depletion where 2 is given for a complete lack of the alcian blue staining, 0 is given for a normal amount of staining and 1 is intermediate. […] The maximum possible score is 8 and (PBS)-mice are scored 0. […]

[4] = tested on: SCID-IBD mice; experiment: SCID-IBD mouse model: lymphocyte numbers (CD3+CD4+) by FACS in blood, spleen and MLN; conditions: for lymphocyte numbers in single treatment groups: study 2: ASM 30 mg/kg/d or Compound A 0.1 mg/kg/d administered alone
Procedure: as §2
Blood is also taken into 10 mM EDTA for preparation for FACS analysis.
The spleen and MLN are taken from each mouse, weighed and processed for FACS analysis of single cell suspensions.
as §5
Antibodies are obtained from Pharmingen. Cells which are double positive for CD3 and CD4 are counted as lymphocytes. Cells positive for Ly-6G (myeloid differentiation antigen) and negative for CD3 or CD4 are neutrophils (also their cellular characteristics (forward and side scatter) distinguishes them from the other cells).
The number of cells per sample is calculated from the total cell number in each cell suspension and the % of positively identified (samples analysed on a FACS Calibur® using CellQuest Pro® software) cells per sample.
as §3

[5] = tested on: SCID-IBD mice; experiment: SCID-IBD mouse model: overall disease inhibition / effective dose; conditions: single treatment groups: ASM 60, 30, 10 mg/kg/d; Compound A 0.1, 0.05 mg/kg/d
Text: as §1
Briefly, CD4^+CD45RB^HI T lymphocytes are isolated from BALB/c mouse spleens by two-colour FACS-sorting through a live/dead gate and injected (2×10^5 cells/mouse, i.p.) into 6-9 week old female SCID mice. […]
as §4

| SMILES | effect on the loss of body weight [1] | reduction of serum haptoglobin levels [2] | % reduction of serum haptoglobin [2] [%] | activity on colon inflammation ([3]; Compound A alone at doses below 0.5 mg/kg/d) | effect on colon inflammation (severity scores) [3] | effects on lymphocyte numbers ([4]; Compound A 0.1 mg/kg/d alone) | lymphocyte numbers in single treatment groups [4] | disease inhibition, single treatment [5] | inhibition of weight loss ([1]; ASM alone 60 mg/kg/d, daily oral gavage day 1 to 29) | effect on colon inflammation (histology severity score) ([3]; ASM981 60 mg/kg/d alone) | reduction in lymphocyte numbers in MLN ([4]; study 1: ASM 60 mg/kg/d, alone or combined with Compound A 0.1 mg/kg/d) [%] |
| --- | --- | --- | --- | --- | --- | --- | --- | --- | --- | --- | --- |
| CO[C@H]1C[C@@H]2CC[C@@H](C)[C@@](O)(O2)C(=O)C(=O)N2CCCC[C@H]2C(=O)O[C@H]([C@H](C)C[C@@H]2CC[C@@H](OCCO)[C@H](OC)C2)CC(=O)[C@H](C)/C=C(\C)[C@@H](O)[C@@H](OC)C(=O)[C@H](C)C[C@H](C)/C=C/C=C/C=C/1C [Compound A, 40-O-(2-hydroxyethyl)-rapamycin] | only minor effects | very weakly active | 27.4 | not significantly active | very little effect | only weal, if any effects | not reduced | – | – | – | – |
| CC[C@@H]1/C=C(\C)C[C@H](C)C[C@H](OC)[C@H]2O[C@@](O)(C(=O)C(=O)N3CCCC[C@H]3C(=O)O[C@H](/C(C)=C/[C@@H]3CC[C@H](Cl)[C@H](OC)C3)[C@H](C)[C@@H](O)CC1=O)[C@H](C)C[C@@H]2OC [ASM, {[1E-(1R,3R,4S)]1R,9S,12S,13R,14S,17R,18E,21S,23S,24R,25S,27R}-12-[2-(4-chloro-3-methoxycyclohexyl)-1-methylvinyl]-17-ethyl-1,14-dihydroxy-23,25-dimethoxy-13,19,21,27-tetramethyl-1,28,dioxa-4-azatricyclo [22.3.1.0(4,9)]octacos-18-ene-2,3,10,16-tetraone] | only minor effects | potently reduces | 32.7 | – | very little effect | – | not reduced | significant effects | significant, but low inhibition of weight loss | significant effect | 73.5 |

From patent publication US20060154952A1, “Pharmaceutical compositions comprising a combination of rapamycin or its derivative and pimecrolimus for the treatment of inflammation-and ummunologically-mediated diseases” (priority 2003, published 2006)
